Reference: patent US20200031866A1, “PEPTIDE INHIBITORS OF SODIUM CHANNELS” (SPYRYX BIOSCIENCES, INC., priority 2016, published 2020)
“Also recorded” adds a separate entry of the source. Square brackets hold non-standard residues; d marks the D form. Ends that are not written are not given here. Nle = CCCC[C@H](N)C(=O)O

Legend:
[1] = molecular target: T1, ENaC (Homo sapiens, UniProt P37088+P51168+P51170); test: Airway surface liquid (ASL) height in human bronchial epithelial cultures by XZ-confocal microscopy; type: cell-based; conditions: peptides added mucosally to HBECs at 30 μM, ASL height measured 3 h later; FIGS. 2A-2B
T1 construct: endogenous in cells; host or cells: primary human bronchial epithelial cultures (HBECs) at air-liquid interface
T1 sequence (P37088 1-669): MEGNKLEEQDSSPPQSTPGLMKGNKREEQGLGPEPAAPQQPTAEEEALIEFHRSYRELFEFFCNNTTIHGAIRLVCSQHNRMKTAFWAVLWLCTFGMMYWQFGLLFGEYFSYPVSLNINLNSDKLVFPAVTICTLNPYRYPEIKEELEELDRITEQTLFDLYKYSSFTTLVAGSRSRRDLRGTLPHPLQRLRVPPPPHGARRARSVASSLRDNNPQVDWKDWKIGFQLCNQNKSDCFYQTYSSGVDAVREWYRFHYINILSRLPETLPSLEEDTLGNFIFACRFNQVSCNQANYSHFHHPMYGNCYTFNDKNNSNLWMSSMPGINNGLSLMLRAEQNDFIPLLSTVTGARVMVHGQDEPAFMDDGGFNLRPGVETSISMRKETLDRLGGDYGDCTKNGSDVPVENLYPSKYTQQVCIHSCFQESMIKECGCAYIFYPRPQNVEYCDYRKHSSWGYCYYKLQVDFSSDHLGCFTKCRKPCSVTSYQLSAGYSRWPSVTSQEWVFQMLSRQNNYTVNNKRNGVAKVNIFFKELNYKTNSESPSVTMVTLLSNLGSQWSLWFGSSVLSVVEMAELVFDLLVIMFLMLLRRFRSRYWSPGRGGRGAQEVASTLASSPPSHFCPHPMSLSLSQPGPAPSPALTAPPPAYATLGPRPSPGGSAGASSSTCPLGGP
T1 sequence (P51168 1-640): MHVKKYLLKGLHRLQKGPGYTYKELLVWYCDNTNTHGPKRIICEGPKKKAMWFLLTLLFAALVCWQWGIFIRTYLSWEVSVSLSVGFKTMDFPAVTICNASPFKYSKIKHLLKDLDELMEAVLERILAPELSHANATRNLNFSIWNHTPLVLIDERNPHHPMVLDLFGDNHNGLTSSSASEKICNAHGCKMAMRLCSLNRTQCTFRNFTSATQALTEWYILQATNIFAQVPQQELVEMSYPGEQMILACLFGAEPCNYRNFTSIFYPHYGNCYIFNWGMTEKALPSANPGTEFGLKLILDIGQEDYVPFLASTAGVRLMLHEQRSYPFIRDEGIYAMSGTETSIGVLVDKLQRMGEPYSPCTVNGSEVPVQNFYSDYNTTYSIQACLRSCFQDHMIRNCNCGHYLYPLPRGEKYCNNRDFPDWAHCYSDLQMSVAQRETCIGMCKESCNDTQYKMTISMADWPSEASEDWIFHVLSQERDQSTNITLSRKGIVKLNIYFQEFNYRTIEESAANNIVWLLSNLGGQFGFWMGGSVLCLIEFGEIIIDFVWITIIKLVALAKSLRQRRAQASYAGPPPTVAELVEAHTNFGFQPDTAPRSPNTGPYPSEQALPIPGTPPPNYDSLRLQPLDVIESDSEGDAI
T1 sequence (P51170 1-649): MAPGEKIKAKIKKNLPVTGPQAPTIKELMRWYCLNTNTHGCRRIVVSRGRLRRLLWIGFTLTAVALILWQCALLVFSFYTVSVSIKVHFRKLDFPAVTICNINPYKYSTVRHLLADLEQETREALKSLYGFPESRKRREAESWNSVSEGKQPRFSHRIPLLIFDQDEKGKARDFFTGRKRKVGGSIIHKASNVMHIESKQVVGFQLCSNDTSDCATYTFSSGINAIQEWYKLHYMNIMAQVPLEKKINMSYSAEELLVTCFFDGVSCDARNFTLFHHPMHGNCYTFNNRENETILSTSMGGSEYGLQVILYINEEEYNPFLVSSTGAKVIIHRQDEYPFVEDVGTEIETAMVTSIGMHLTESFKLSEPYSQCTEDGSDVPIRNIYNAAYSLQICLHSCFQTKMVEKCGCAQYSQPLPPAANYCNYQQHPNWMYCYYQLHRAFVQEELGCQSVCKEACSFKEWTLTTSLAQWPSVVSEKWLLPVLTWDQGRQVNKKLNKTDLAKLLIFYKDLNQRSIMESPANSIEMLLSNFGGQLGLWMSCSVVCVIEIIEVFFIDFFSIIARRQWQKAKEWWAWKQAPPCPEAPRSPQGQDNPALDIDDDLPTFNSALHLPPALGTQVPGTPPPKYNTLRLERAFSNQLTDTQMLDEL
Excerpt: Cells were harvested by enzymatic digestion from human bronchial tissue as previously described under a protocol approved by the UNC School of Medicine IRB (Tarran et al., J. Gen. Physiol. 127:591 (2006)). Human excess donor lungs and excised recipient lungs were obtained at the time of lung transplantation from portions of main stem or […] bronchi and cells were harvested by enzymatic digestion. All preparations were maintained at an air-liquid interface in a modified bronchial epithelial medium and used 2-5 weeks after seeding on 12 mm T-Clear inserts (Corning Costar) coated with human placental type VI collagen (Sigma). Phosphate buffered saline (PBS) was used for washing human bronchial epithelial culture mucosal surfaces.
To label airway surface liquid, Ringer containing rhodamine-dextran (2 mg/ml; Invitrogen) was added to human bronchial epithelial culture mucosal surfaces. […] 10 points per culture were scanned and an average airway surface liquid height determined. […]
To confirm our alanine-scan data, we made a peptide of subsequence A (LPVPLDQT (SEQ ID NO:113); FIG. 1). […] Peptides were added mucosally to HBECs at 30 μM and ASL height measured 3 h later by XZ-confocal microscopy. […]

[2] = molecular target: T2, alpha-ENaC (Homo sapiens, UniProt P37088+P51168+P51170); test: Internalization of alpha-ENaC in HEK293T cells, GFP-tagged alpha-ENaC co-expressed with beta and gamma ENaC; type: cell-based; conditions: beta-ENaC co-expressed, FIGS. 5A-5U
T2 construct: expressed in transfected cells; host or cells: HEK293T
T2 sequence (P37088 1-669): T1 sequence (P37088 1-669)
T2 sequence (P51168 1-640): T1 sequence (P51168 1-640)
T2 sequence (P51170 1-649): T1 sequence (P51170 1-649)
Excerpt: HEK293T cells were transfected with gfp-αENaC where gfp was fused at the N-terminus of ENaC and unlabeled βENaC and γENaC using lipofectamine in 384 well plates as per the manufacturer's instructions and as published previously (see, e.g., Hobbs et al. Am J Physiol Lung Cell Mol Physiol. 2013 December; 305(12):L990-L1001. doi: 10.1152/ajplung.00103.2013. Epub 2013 October; Garland et al. Proc Natl Acad Sci USA. 2013 Oct. 1; 110(40):15973-8. doi: 10.1073/pnas.1311999110. Epub 2013 Sep. 16.; Tan et al. J Physiol. 2014 Dec. 1; 592(Pt 23):5251-68). Twenty-four hours later, peptide or vehicle control were added at t=0 and fluorescence was read using a Tecan M1000 plate reader 3 h later. Fluorescence was read at 488 nm (excitation)/510 nm (emission).

[3] = molecular target: T3, alpha-ENaC (Homo sapiens, UniProt P37088); test: Internalization of alpha-ENaC in HEK293T cells, GFP-tagged alpha-ENaC co-expressed only with gamma ENaC and no beta-ENaC; type: cell-based; conditions: FIG. 6
T3 construct: expressed in transfected cells; host or cells: HEK293T
T3 sequence (P37088 1-669): T1 sequence (P37088 1-669)
Description: […] Am J Physiol Lung Cell Mol Physiol. 2013 December; 305(12):L990-L1001. doi: 10.1152/ajplung.00103.2013. Epub 2013 October; Garland et al. Proc Natl Acad Sci USA. 2013 Oct. 1; 110(40):15973-8. doi: 10.1073/pnas.1311999110. Epub 2013 Sep. 16.; Tan et al. J Physiol. 2014 Dec. 1; 592(Pt 23):5251-68). Twenty-four hours later, peptide or vehicle control were added at t=0 and fluorescence was read using a Tecan M1000 plate reader 3 h later. Fluorescence was read at 488 nm (excitation)/510 nm (emission).

[4] = test system: proteases; type: in vitro ADME
[5] = Heat stability; type: physicochemical
[6] = molecular target: T1, ENaC; conditions: previously demonstrated (Hobbs et al., 2013); cited from earlier work
[7] = molecular target: epithelial Na+ channel (ENaC), endogenous in human bronchial epithelial cultures (human, UniProt P37088 1-669; P51168 1-640; P51170 1-649); test: cell-based or functional assay

DQTLPLNVNP (not fully specified) [SEQ ID NO:114, NH3-…-NH2, overlapping control peptide of S18]
activity on ASL height / inhibition of ENaC compared with S18 [1]: inactive

H-GGLPVPLDQTLPLNVNPA-NH2 [SEQ ID NO:1]
reduction of alpha-ENaC / functional receptor on the cell surface [2]: effective in reducing alpha-ENaC
effect on alpha-ENaC [3]: no effect
susceptibility to proteolytic degradation [4]: resistant to proteolysis
heat stability [5]: heat-stable
EC50 for inhibition of ENaC [6]: sub micromolar
duration of ENaC inhibition following a single dose [6]: up to 24 h

H-LPVPLDQT-NH2 [SEQ ID NO:113, LPVPLDQT]
activity on ASL height / inhibition of ENaC compared with S18 [1]: retained similar activity to S18; also recorded: required for inhibition of ENaC and preservation of ASL height
susceptibility to proteolytic degradation [4]: more susceptible to proteolytic degradation

B1: aaLPNlePLDQTaa (SEQ ID NO:5) (peptide)
peptide: [dA][dA]LP[Nle]PLDQT[dA][dA]-NH2
modifications: N-terminus assumed
SMILES: CCCC[C@H](NC(=O)[C@@H]1CCCN1C(=O)[C@H](CC(C)C)NC(=O)[C@@H](C)NC(=O)[C@@H](C)N)C(=O)N1CCC[C@H]1C(=O)N[C@@H](CC(C)C)C(=O)N[C@@H](CC(=O)O)C(=O)N[C@@H](CCC(N)=O)C(=O)N[C@H](C(=O)N[C@H](C)C(=O)N[C@H](C)C(N)=O)[C@@H](C)O
IC50, dose response of ASL height on airway cells [7]: 30 nM
